Marks after values point to notes of the source that are not given here.
How the values were obtained:
[1] = tested on: Septoria nodorum; experiment: Test E: Septoria glume blotch, preventive spray on wheat seedlings, visual disease rating; settings: 100 = 100% disease control; for Test E rating (% disease control): Septoria glume blotch on wheat, preventive spray, rating without asterisk; for Test E rating (disease control): Septoria glume blotch
[2] = tested on: Puccinia recondita f. sp. tritici; experiment: Test G: wheat leaf rust, spray after inoculation (curative) on wheat seedlings, visual disease rating; type: in vivo; settings: 100 = 100% disease control; for Test G rating (% disease control): spray after inoculation, rating without asterisk
From the text: (§1) A hyphen (-) indicates no test results.

[3] = tested on: Septoria tritici; experiment: Test F: wheat leaf blotch, preventive spray on wheat seedlings, visual disease rating; type: in vivo; parameters: Test F rating (disease control), value marked *: concentration or dose not given beside the values; settings: for Test F rating (% disease control): preventive spray, rating without asterisk
From the text: as §1

[4] = tested on: Blumeria graminis f. sp. tritici; experiment: Test I: wheat powdery mildew, preventive spray on wheat seedlings, visual disease rating; settings: 100 = 100% disease control; for Test I rating (% disease control) / Test I rating (disease control): wheat powdery mildew; for Test I rating (% disease control): preventive spray, rating without asterisk
[5] = tested on: Botrytis cinerea; experiment: Test A: tomato Botrytis, preventive spray on tomato seedlings, visual disease rating; settings: 100 = 100% disease control; for Test A rating (% disease control) / Test A rating (disease control): tomato Botrytis; for Test A rating (% disease control): preventive spray, 0 = no control relative to controls, rating without asterisk
[6] = tested on: Alternaria solani; experiment: Test B: tomato early blight, preventive spray on tomato seedlings, visual disease rating; settings: for Test B rating (% disease control) / Test B rating (disease control): tomato early blight, 100 = 100% disease control; for Test B rating (% disease control): preventive spray, rating without asterisk; for Test B rating (disease control): 0 = no disease control relative to the controls
[7] = tested on: Puccinia recondita f. sp. tritici; experiment: Test H: wheat leaf rust, preventive spray on wheat seedlings, visual disease rating; settings: 100 = 100% disease control; for Test H rating (% disease control) / Test H rating (disease control): wheat leaf rust; for Test H rating (% disease control): preventive spray, rating without asterisk; for Test H rating (disease control): sprayed the day before inoculation
[8] = 0 = no disease control relative to the controls
[9] = sprayed after inoculation, 0 = no disease control
[10] = 100 = 100% disease control, 0 = no disease control relative to the controls

| SMILES | Test E rating (disease control) [1, 8] | Test G rating (disease control) [2, 9] | Test F rating (disease control) [3, 10] | Test I rating (disease control) [4, 8] | Test A rating (disease control) [5, 8] | Test B rating (disease control) [6] | Test H rating (disease control) ([7]; 0 = no disease control) | further results |
| --- | --- | --- | --- | --- | --- | --- | --- | --- |
| Cc1nn(C)c(Nc2c(Cl)cc(Cl)cc2I)c1-c1ccc(F)cc1F [compound 210] | – | – | – | – | – | – | – | Test E rating (% disease control) [1]: 0%; Test G rating (% disease control) [2]: 0%; Test F rating (% disease control) ([3]; 100 = 100% disease control): 100%; Test I rating (% disease control) [4]: 0%; Test A rating (% disease control) [5]: 3%; Test B rating (% disease control) [6]: 0%; Test H rating (% disease control) [7]: 97% |
| Cc1nn(C)c(Oc2ccc(Cl)cc2Cl)c1-c1c(F)cc(F)cc1F [compound 9] | 0% | 0% | 97% | 99% | 99% | 9% | 99% | – |
| Cc1nn(C)c(Nc2ccc(F)cc2Br)c1-c1c(Cl)cccc1Cl [compound 114] | 0% | 0% | 100% | 100% | 99% | 0% | 91% | – |
| Cc1nn(C)c(Nc2c(F)cc(I)cc2F)c1-c1ccc(F)cc1F [compound 216] | – | – | – | – | – | – | – | Test E rating (% disease control) [1]: 60%; Test G rating (% disease control) [2]: 18%; Test F rating (% disease control) ([3]; 100 = 100% disease control): 100%; Test I rating (% disease control) [4]: 99%; Test A rating (% disease control) [5]: 100%; Test B rating (% disease control) [6]: 0%; Test H rating (% disease control) [7]: 95% |
| Cc1nn(C)c(Nc2c(F)cc(C#N)cc2F)c1-c1c(F)cccc1Cl [compound 57] | 73% | 0% | 100% | 99% | 97% | 100% | 99% | – |
| Cc1nn(C)c(Nc2c(F)cccc2F)c1-c1ccc(F)cc1Cl [Compound 46, 4-(2-chloro-4-fluorophenyl)-N-(2,6-difluorophenyl)-1,3-dimethyl-1H-pyrazol-5-amine] | – | – | – | – | – | – | – | pest or weed control at 200 µg/mL ([1]; Parastagonospora nodorum, in Triticum aestivum, read-out: Test E rating (disease control), Septoria glume blotch, 0 = no disease control relative to the controls): 87%; pest or weed control at 200 µg/mL [2, 9]: 0%; pest or weed control at 200 µg/mL ([3]; Zymoseptoria tritici, 100 = 100% disease control, 0 = no disease control relative to the controls): 100%; pest or weed control at 200 µg/mL ([4]; Blumeria graminis, in Triticum aestivum, read-out: Test I rating (disease control), wheat powdery mildew, 0 = no disease control relative to the controls): 100%; pest or weed control at 200 µg/mL ([5]; Botrytis cinerea, in Solanum lycopersicum, read-out: Test A rating (disease control), tomato Botrytis, 0 = no disease control relative to the controls): 100%; pest or weed control at 200 µg/mL ([6]; Alternaria solani, in Solanum lycopersicum, read-out: Test B rating (disease control)): 100%; pest or weed control at 200 µg/mL ([7]; read-out: Test H rating (disease control), wheat leaf rust, sprayed the day before inoculation, 0 = no disease control): 99% |
| Cc1nn(C)c(Oc2ccc(C#N)cc2F)c1-c1c(F)cc(F)cc1F [compound 27] | 99% | 9% | 100% | 100% | 99% | 99% | 99% | – |
| Cc1nn(C)c(Nc2c(F)cc(F)cc2F)c1-c1ccccc1F [compound 53] | 87% | 0% | 100% | 99% | 97% | 99% | 95% | – |
| Cc1nn(C)c(Nc2ccc(Br)cc2Br)c1-c1ccc(F)cc1Cl [compound 183] | – | – | – | – | – | – | – | Test E rating (% disease control) [1]: 0%; Test G rating (% disease control) [2]: 54%; Test F rating (% disease control) ([3]; 100 = 100% disease control): 100%; Test I rating (% disease control) [4]: 98%; Test A rating (% disease control) [5]: 100%; Test B rating (% disease control) [6]: 0%; Test H rating (% disease control) [7]: 96% |
| Cc1nn(C)c(Oc2c(F)cc(C#N)cc2F)c1-c1ccccc1Br [compound 76] | 99% | 0% | 99% | 99% | 100% | 97% | 99% | – |
| Cc1nn(C)c(Oc2ccc(C#N)cc2Cl)c1-c1ccc(F)cc1Br [compound 80] | 60% | 9% | – | 99% | 98% | 0% | 99% | Test F rating (disease control), value marked * ([3]; rating marked with asterisk (*), other test condition, not explained in the text shown): 100* % |

Reference: patent US20170150719A1, “FUNGICIDAL PYRAZOLES AND THEIR MIXTURES” (E I DU PONT DE NEMOURS AND COMPANY, priority 2010, published 2017)
